Results on 15 molecules are retold here after patent US8613914B2, “Peptidomimetic sulfamide compounds and antiviral uses thereof” (Novartis AG, priority 2009, dated 2013).

In the assay the target is HCV NS3-4A serine protease (full-length NS3-4A protein) (Hepatitis C virus genotype 1a (isolate 1) (HCV), UniProt P26664). The experiment in a line: HCV NS3-4A protease assay. As to conditions: strain HCV-1, fluorogenic peptide substrate, read-out: Protease assay Ex. 12 IC50. It is filed as biochemical, HCV genotype 1a. How it is done: The inhibitory activity of certain compounds of Table A against HCV NS3-4A serine protease is determined in a homogenous assay using the full-length NS3-4A protein (genotype 1a, strain HCV-1) and a commercially available internally-quenched fluorogenic peptide substrate as described by Taliani, M., et al. 1996 Anal. Biochem. 240:60-67, which is incorporated by reference in its entirety.
HCV NS3-4A serine protease (full-length NS3-4A protein), sequence (P26664 1027-1657): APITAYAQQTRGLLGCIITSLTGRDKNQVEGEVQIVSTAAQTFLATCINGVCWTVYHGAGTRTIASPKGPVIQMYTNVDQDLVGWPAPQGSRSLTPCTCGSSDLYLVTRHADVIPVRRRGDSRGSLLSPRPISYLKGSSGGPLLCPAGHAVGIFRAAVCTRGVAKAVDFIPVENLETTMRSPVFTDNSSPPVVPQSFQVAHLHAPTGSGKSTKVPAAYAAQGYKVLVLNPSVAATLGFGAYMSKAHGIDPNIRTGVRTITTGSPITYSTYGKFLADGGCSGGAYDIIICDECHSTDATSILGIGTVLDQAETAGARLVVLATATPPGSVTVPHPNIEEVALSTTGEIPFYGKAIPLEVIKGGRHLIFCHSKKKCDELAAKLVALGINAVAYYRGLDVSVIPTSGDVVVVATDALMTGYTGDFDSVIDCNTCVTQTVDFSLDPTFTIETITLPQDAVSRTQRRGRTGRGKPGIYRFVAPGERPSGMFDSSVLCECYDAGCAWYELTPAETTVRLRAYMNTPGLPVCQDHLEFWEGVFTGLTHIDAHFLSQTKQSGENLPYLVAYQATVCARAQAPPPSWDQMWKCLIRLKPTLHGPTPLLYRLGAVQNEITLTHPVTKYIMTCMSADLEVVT
HCV NS3-4A serine protease (full-length NS3-4A protein), sequence (P26664 1658-1711 partner): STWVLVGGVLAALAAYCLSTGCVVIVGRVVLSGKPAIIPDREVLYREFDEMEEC
One may read the IC50 as the concentration needed to halve the response being measured. Consider `CC[C@@H]1C[C@]1(NC(=O)[C@@H]1C[C@@]2(CN1C(=O)[C@@H](NC(=O)[C@@H](NC(=O)[C@H]1CCCCN1C(C)C)C1CCCCC1)C(C)(C)C)C(C)(C)C21CCC1)C(=O)NS(=O)(=O)N(CC)CC` [Compound 121, (5R,8S)-7-[(2S)-2-{[(2S)-2-cyclohexyl-2-({[(2R)-1-isopropylpiperidin-2-yl]carbonyl}amino)acetyl]amino}-3,3-dimethylbutanoyl]-N-[(1R,2R)-1-{[(diethylamino)sulfonyl]carbamoyl}-2-ethylcyclopropyl]-10,10-dimethyl-7-azadispiro[3.0.4.1]decane-8-carboxamide], for which the IC50 was found to be 7 nM. For `C=C[C@@H]1C[C@]1(NC(=O)[C@@H]1C[C@@]2(CN1C(=O)[C@@H](NC(=O)[C@@H](NC(=O)[C@@H]1CCCCN1CCOC)C1CCCCC1)C(C)(C)C)C(C)(C)C21CCC1)C(=O)NS(=O)(=O)N1CCCC1` [Compound 33, (5R,8S)-7-[(2S)-2-{[(2S)-2-cyclohexyl-2-({[(2S)-1-(2-methoxyethyl)piperidin-2-yl]carbonyl}amino)acetyl]amino}-3,3-dimethylbutanoyl]-10,10-dimethyl-N-{(1R,2S)-1-[(pyrrolidin-1-ylsulfonyl)carbamoyl]-2-vinylcyclopropyl}-7-azadispiro[3.0.4.1]decane-8-carboxamide] the value was 3.5 nM. For `C=C[C@@H]1C[C@]1(NC(=O)[C@@H]1C[C@@]2(CN1C(=O)[C@@H](NC(=O)[C@@H](NC(=O)[C@@H]1CCCCN1CC)C1CCCCC1)C(C)(C)C)C(C)(C)C21CCC1)C(=O)NS(=O)(=O)N(CC)CC` [Compound 77, (5R,8S)-7-[(2S)-2-{[(2S)-2-cyclohexyl-2-({[(2S)-1-ethylpiperidin-2-yl]carbonyl}amino)acetyl]amino}-3,3-dimethylbutanoyl]-N-[(1R,2S)-1-{[(diethylamino)sulfonyl]carbamoyl}-2-vinylcyclopropyl]-10,10-dimethyl-7-azadispiro[3.0.4.1]decane-8-carboxamide] the value was 0.9 nM. For `C=C[C@@H]1C[C@]1(NC(=O)[C@@H]1C[C@@]2(CN1C(=O)[C@@H](NC(=O)[C@@H](NC(=O)[C@@H]1CCCCN1C(C)C)C(C)(C)C)C(C)(C)C)C(C)(C)C21CCC1)C(=O)NS(=O)(=O)N1CCCC1` [Compound 3, (5R,8S)-7-[(2S)-2-{[(2S)-2-({[(2S)-1-isopropylpiperidin-2-yl]carbonyl}amino)-3,3-dimethylbutanoyl]amino}-3,3-dimethylbutanoyl]-10,10-dimethyl-N-{(1R,2S)-1-[(pyrrolidin-1-ylsulfonyl)carbamoyl]-2-vinylcyclopropyl}-7-azadispiro[3.0.4.1]decane-8-carboxamide] the value was 6 nM. Consider `C=C[C@@H]1C[C@]1(NC(=O)[C@@H]1C[C@@]2(CN1C(=O)[C@@H](NC(=O)[C@@H](NC(=O)c1cc3ccccc3n1C)C1CCCCC1)C(C)(C)C)C(C)(C)C21CCC1)C(=O)NS(=O)(=O)N1CCCC1` [Compound 178, (5R,8S)-7-{(2S)-2-[(cyclohexyl{[(1-methyl-1H-indol-2-yl)carbonyl]amino}acetyl)amino]-3,3-dimethylbutanoyl}-10,10-dimethyl-N-{(1R,2S)-1-[(pyrrolidin-1-ylsulfonyl)carbamoyl]-2-vinylcyclopropyl}-7-azadispiro[3.0.4.1]decane-8-carboxamide], for which the IC50 was 80 nM. Next, `C=C[C@@H]1C[C@]1(NC(=O)[C@@H]1C[C@@]2(CN1C(=O)[C@@H](NC(=O)[C@@H](NC(=O)C1CCN1C(C)(C)C)C1CCCCC1)C(C)(C)C)C(C)(C)C21CCC1)C(=O)NS(=O)(=O)N1CCCC1` (stereo partly drawn) [Compound 40, (5R,8S)-7-[(2S)-2-{[(2S)-2-{[(1-tert-butylazetidin-2-yl)carbonyl]amino}-2-cyclohexylacetyl]amino}-3,3-dimethylbutanoyl]-10,10-dimethyl-N-{(1R,2S)-1-[(pyrrolidin-1-ylsulfonyl)carbamoyl]-2-vinylcyclopropyl}-7-azadispiro[3.0.4.1]decane-8-carboxamide]: 6 nM; `C=C[C@@H]1C[C@]1(NC(=O)[C@@H]1C[C@@]2(CN1C(=O)[C@@H](NC(=O)[C@@H](NC(=O)[C@@H]1CCCN1CC)C1CCCCC1)C(C)(C)C)C(C)(C)C21CCC1)C(=O)NS(=O)(=O)N(CC)CC` [Compound 63, (5R,8S)-7-[(2S)-2-{[(2S)-2-cyclohexyl-2-({[(2S)-1-ethylpyrrolidin-2-yl]carbonyl}amino)acetyl]amino}-3,3-dimethylbutanoyl]-N-[(1R,2S)-1-{[(diethylamino)sulfonyl]carbamoyl}-2-vinylcyclopropyl]-10,10-dimethyl-7-azadispiro[3.0.4.1]decane-8-carboxamide]: 1.2 nM. For `C=C[C@@H]1C[C@]1(NC(=O)[C@@H]1C[C@@]2(CN1C(=O)[C@@H](NC(=O)[C@@H](NC(=O)[C@@H]1CCCN1CC)C1CCCCC1)C(C)(C)C)C(C)(C)C21CCC1)C(=O)NS(=O)(=O)N(CC)CCC` [Compound 107, (5R,8S)-7-[(2S)-2-{[(2S)-2-cyclohexyl-2-({[(2S)-1-ethylpyrrolidin-2-yl]carbonyl}amino)acetyl]amino}-3,3-dimethylbutanoyl]-N-[(1R,2S)-1-({[ethyl(propyl)amino]sulfonyl}carbamoyl)-2-vinylcyclopropyl]-10,10-dimethyl-7-azadispiro[3.0.4.1]decane-8-carboxamide] the value was 9 nM; for `C=C[C@@H]1C[C@]1(NC(=O)[C@@H]1C[C@@]2(CN1C(=O)[C@@H](NC(=O)[C@@H](NC(=O)[C@H]1CCCCN1C(C)C)C1CCCCC1)C(C)(C)C)C(C)(C)C21CCC1)C(=O)NS(=O)(=O)N(C)C(C)C` [Compound 119, (5R,8S)-7-[(2S)-2-{[(2S)-2-cyclohexyl-2-({[(2R)-1-isopropylpiperidin-2-yl]carbonyl}amino)acetyl]amino}-3,3-dimethylbutanoyl]-N-[(1R,2S)-1-({[isopropyl(methyl)amino]sulfonyl}carbamoyl)-2-vinylcyclopropyl]-10,10-dimethyl-7-azadispiro[3.0.4.1]decane-8-carboxamide], 6.5 nM. Next, `C=C[C@@H]1C[C@]1(NC(=O)[C@@H]1C[C@@]2(CN1C(=O)[C@@H](NC(=O)[C@@H](NC(=O)[C@@H]1CCCCN1C(C)C)C1CCCCC1)C(C)(C)C)C(C)(C)C21CCC1)C(=O)NS(=O)(=O)N(C)C1CCC1` [Compound 49, (5R,8S)-N-[(1R,2S)-1-({[cyclobutyl(methyl)amino]sulfonyl}carbamoyl)-2-vinylcyclopropyl]-7-[(2S)-2-{[(2S)-2-cyclohexyl-2-({[(2S)-1-isopropylpiperidin-2-yl]carbonyl}amino)acetyl]amino}-3,3-dimethylbutanoyl]-10,10-dimethyl-7-azadispiro[3.0.4.1]decane-8-carboxamide]: 3.3 nM; `C=C[C@@H]1C[C@]1(NC(=O)[C@@H]1C[C@@]2(CN1C(=O)[C@@H](NC(=O)[C@@H](NC(=O)OC(C)(C)C)C(C)(C)C)C(C)(C)C)C(C)(C)C21CCC1)C(=O)NS(=O)(=O)N1CCOCC1` [Compound 5, tert-butyl [(1S)-1-{[(1S)-1-{[(5R,8S)-10,10-dimethyl-8-({(1R,2S)-1-[(morpholin-4-ylsulfonyl)carbamoyl]-2-vinylcyclopropyl}carbamoyl)-7-azadispiro[3.0.4.1]dec-7-yl]carbonyl}-2,2-dimethylpropyl]carbamoyl}-2,2-dimethylpropyl]carbamate]: 6650 nM; `C=C[C@@H]1C[C@]1(NC(=O)[C@@H]1C[C@@]2(CN1C(=O)[C@@H](NC(=O)[C@@H](NC(=O)c1cc(C)nn1CC)C1CCCCC1)C(C)(C)C)C(C)(C)C21CCC1)C(=O)NS(=O)(=O)N1CCCC1` [Compound 180, (5R,8S)-7-{(2S)-2-[(cyclohexyl{[(1-ethyl-3-methyl-1H-pyrazol-5-yl)carbonyl]amino}acetyl)amino]-3,3-dimethylbutanoyl}-10,10-dimethyl-N-{(1R,2S)-1-[(pyrrolidin-1-ylsulfonyl)carbamoyl]-2-vinylcyclopropyl}-7-azadispiro[3.0.4.1]decane-8-carboxamide]: 30 nM. As to `C=C[C@@H]1C[C@]1(NC(=O)[C@@H]1C[C@@]2(CN1C(=O)[C@@H](NC(=O)[C@@H](NC(=O)c1nccc3ccccc13)C1CCCCC1)C(C)(C)C)C(C)(C)C21CCC1)C(=O)NS(=O)(=O)N1CCCC1` [Compound 195, (5R,8S)-7-[(2S)-2-({cyclohexyl[(isoquinolin-1-ylcarbonyl)amino]acetyl}amino)-3,3-dimethylbutanoyl]-10,10-dimethyl-N-{(1R,2S)-1-[(pyrrolidin-1-ylsulfonyl)carbamoyl]-2-vinylcyclopropyl}-7-azadispiro[3.0.4.1]decane-8-carboxamide], the IC50 is 75 nM. For `C=C[C@@H]1C[C@]1(NC(=O)[C@@H]1C[C@@]2(CN1C(=O)[C@@H](NC(=O)[C@@H](NC(=O)[C@@H]1CCCN1CC)C1(C)CCCCC1)C1(C)CCOCC1)C(C)(C)C21CCC1)C(=O)NS(=O)(=O)N(CC)CC` [Compound 153, (5R,8S)-N-[(1R,2S)-1-{[(diethylamino)sulfonyl]carbamoyl}-2-vinylcyclopropyl]-7-[(2S)-2-{[(2S)-2-({[(2S)-1-ethylpyrrolidin-2-yl]carbonyl}amino)-2-(1-methylcyclohexyl)acetyl]amino}-2-(4-methyltetrahydro-2H-pyran-4-yl)acetyl]-10,10-dimethyl-7-azadispiro[3.0.4.1]decane-8-carboxamide] the value was 1.8 nM.

With `C=C[C@@H]1C[C@]1(NC(=O)[C@@H]1C[C@@]2(CN1C(=O)[C@@H](NC(=O)[C@@H](NC(=O)CN(C)C)C1CCCCC1)C(C)(C)C)C(C)(C)C21CCC1)C(=O)NS(=O)(=O)N1CCCC1` [Compound 200, (5R,8S)-7-{(2S)-2-[(cyclohexyl{[(dimethylamino)acetyl]amino}acetyl)amino]-3,3-dimethylbutanoyl}-10,10-dimethyl-N-{(1R,2S)-1-[(pyrrolidin-1-ylsulfonyl)carbamoyl]-2-vinylcyclopropyl}-7-azadispiro[3.0.4.1]decane-8-carboxamide], the IC50 was 8 nM.
